This note sets out measurements from patent US20210063414A1, “METHODS FOR PREVENTING AND/OR TREATING BONE LOSS CONDITIONS BY MODULATING IRISIN” (Dana-Farber Cancer Institute, Inc., priority 2018, published 2021).

Assay [1] concerns primary inguinal fat cells. Kind of assay: Ucp1 mRNA in primary inguinal fat cells. The assay is classed as cell-based, mice. The conditions noted are these: 10 μM peptide. As to the method:
(§1) FIG. 18A-FIG. 18B show mRNA and protein levels of indicated genes. 1 mg/kg irisin was injected to 8-week old mice every other day for 6 days. mRNA levels of indicated genes in inguinal fat were analyzed by qRT-PCR. Cyclophilin was used for housekeeping gene (FIG. 18A). Inguinal fats were also lysed to detect the indicated protein level using immunoblot analysis (FIG. 18B). FIGS. 18C and 18D show mRNA and protein levels of indicated genes. Mice were treated and analyzed as (A-B) with addition of coinjection of […] control RGD peptide or cyclo RGDyK (cRGDyK). mRNA levels of indicated genes in inguinal fat were analyzed by qRT-PCR. Cyclophilin was used for house-keeping gene (FIG. 18C). Inguinal fats were also lysed to detect the indicated protein level using immunoblot analysis (FIG. 18D). […] Ucp1 mRNA level was analyzed by qRT-PCR. […]
Inguinal fat tissue from 6 weeks old mice was dissected and washed with PBS, minced and digested for 1 hour at 37° C. in PBS containing 10 mM CaCl2, 2.4 U/ml dispase II (Roche) and 10 mg/ml collagenase D (Roche). […] After that, cells were maintained in 1 μM rosiglitazone in the presence of 0, 0.5, 5 or 50 ng/ml recombinant […] his-tag irisin protein for 4 days with medium change every other day. mRNA levels were analyzed as described in gene expression analysis. […]

In a further assay the test system is inguinal fat. Kind of assay: Irisin injection in mice: Ucp1/Dio2 mRNA and Ucp1 protein in inguinal fat. In kind it is in vivo. Particulars: mice, co-injection with irisin. As to the method: as §1
RNA was extracted from cultured cells or frozen tissues using TRIzol® (Thermo Fischer Scientific) and purified with RNeasy® mini kit (QIAGEN 74106). […] To perform qRT-PCR analysis, normalized RNA was reverse transcribed using a high-capacity cDNA reverse-transcription kit (Applied Biosystems™). cDNA was analyzed by qRT-PCR with indicated primers. Relative mRNA levels were calculated using the comparative CT method and normalized to cyclophilin mRNA. […]

For `N=C(N)NCCC[C@@H]1NC(=O)[C@H](CCCCN)NC(=O)[C@@H](Cc2ccc(O)cc2)NC(=O)[C@H](CC(=O)O)NC(=O)CNC1=O` [cyclo RGDyK], the “effect on irisin-induced gene expression (Ucp1)” value in assay [1] is listed as “prevented irisin-induced gene expression”. In the assay with inguinal fat, the “effect on irisin induction of the protein level of Ucp1” value was “blocked”; the “effect on irisin-induced gene expression of Ucp1 and Dio2” value is “blocked”.
